Results reported in US20120046461A1, “STEROIDAL ANTI-HORMONE HYBRIDS” (Northeastern University, priority 2009, published 2012).
“And” between values parts separate entries of the source, which are not always exact repeats. Identical values can stand only once.

Columns and labels:
[1] = biological target: T1, LBD of human ERα (M250-V595) (Homo sapiens, UniProt P03372); assay: Competitive binding of [3H]E2 to ERα-LBD (RBA); details: RBA against E2
T1 construct: the LBD of human ERα (M250-V595) is expressed; made in house; host or cells: Escherichia coli (lysates)
T1 sequence (P03372 250-595): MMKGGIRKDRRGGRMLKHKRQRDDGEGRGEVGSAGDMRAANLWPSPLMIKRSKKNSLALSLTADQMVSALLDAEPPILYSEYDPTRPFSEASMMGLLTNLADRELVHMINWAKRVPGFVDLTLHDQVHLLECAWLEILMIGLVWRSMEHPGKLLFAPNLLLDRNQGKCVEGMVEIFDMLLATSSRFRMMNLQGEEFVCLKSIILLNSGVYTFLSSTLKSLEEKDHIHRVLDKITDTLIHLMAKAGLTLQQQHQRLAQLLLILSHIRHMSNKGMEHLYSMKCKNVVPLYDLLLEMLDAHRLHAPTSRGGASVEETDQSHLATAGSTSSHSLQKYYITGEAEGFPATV
Description: (§1) A. Competitive Binding to Rat Cytosolic ER, Human LBD-ERα and Human LBD-ERβ
Biological evaluation used competitive binding assays with estradiol on the ERα-LBD. […] After incubation, the media was aspirated, the plates were washed 3 times, and the receptor-bound radioactivity absorbed to the plates was extracted with methanol and counted.
(§2) The ability of the described ERα ligands to bind to the ER was determined through their RBA against E2, in the competitive binding assay described above.

Human LBD-ERβ = biological target: T2, Human LBD-ERβ (Homo sapiens, UniProt Q92731); assay: Competitive binding to ERβ (RBA); details: for RBA ERβ: RBA against E2
T2 construct: Human LBD-ERα and Human LBD-ERβ
Description: as §1
Biological evaluation used competitive binding assays with estradiol on the ERα-LBD. Binding affinities of the estradiol derivatives relative to E, were performed in incubations with the LBD of ERα. in lysates of Escherichia coli in which the LBD of human ERα (M250-V595) is expressed as described in Antonello, et al. (J. Med. Chem. (2006) 49:6642-6645), Morphy, et al. (J. Med. Chem. (2006), 49:4961-4970); Meunier (Accounts Chem. Res. (2007), and Ojima (Accounts Chem. Res. (2007). The assay was perfoiiued overnight in phosphate buffered saline +1 mM EDTA at RT. The competition for binding of [^3H]E2 to the LBD of the E2-derivatives in comparison to E2, relative binding affinity (RBA) was determined over a range of concentrations from 10^−12 to 10^−6M. After incubation, the media was aspirated, the plates were washed 3 times, and the receptor-bound radioactivity absorbed to the plates was extracted with methanol and counted.
as §2

[2] = tested on: alkaline phosphatase in Ishikawa cells; assay: Stimulation of alkaline phosphatase in Ishikawa cells (estrogenic potency); assay type: cell-based, human; details: for Ishikawa - RSA: relative stimulatory activity in comparison to E2 = 100%
Description: The methodology for determining estrogenic potency, estrogen receptor binding, and stimulation of an estrogen responsive gene in alkaline phosphatase in the Ishikawa cell was performed as described. (Stabile, et al. (2005) Cancer Res. 65:1459-1470; Perez-Soler (2007) Clin. Can. Res. 13(Suppl. 15):[…]; Nicholson, et al. (2000) British J. Cancer 82:501-513; Schiff, et al. (2004) Clin. Can. Res. 10 (supp.1):331s-336s).
(§3) The induction of AlkP in human endometrial adenocarcinoma cells (Ishikawa) grown in 96-well microtiter plates was performed as described. The cells were grown in Phenol red-free medium with estrogen-depleted (charcoal stripped) bovine serum in the presence or absence of varying amounts of the steroids across a dose range of at least 6 orders of magnitude. After 3 days, the cells were washed, frozen, thawed, and then incubated with 5 mM p-nitrophenyl phosphate, a chromogenic substrate for the AlkP enzyme, at pH 9.8. To ensure linear enzymatic analysis, the plates were monitored kinetically for the production of p-nitrophenol at 405 nm.
(§4) Each compound was analyzed in at least 3 separate experiments performed in duplicate. The Ki and RSA (RSA=ratio of 1/EC50 of the steroid analog to that of E2×100) were determined using the curve fitting program Prism. The results are shown below in FIGS. 1A-1C, 2, 3, and 4.

[3] = tested on: MCF-7 (ER-positive) breast cancer cell line; assay: Cellular proliferation of MCF-7 (ER-positive) breast cancer cells, mitomycin series; assay type: cell-based; details: MCF-7 cells, FIG. 2, 4, 5
From the text: Another series of biological assays (Litzenburger, et al., Clin. Can. Res. (2009) 15:226 and Georghis, et al., Can. Chemothera. Pharmacol. (1992) 29:290.) are run to evaluate the effect of the mitomycin moiety on cellular proliferation of MCF-7 (ER-positive) and MDA-231 (ER-negative) breast cancer cell lines.

MCF-7 cells = assay: Anti-proliferative assay (MTS/PMS), MCF-7; assay type: cell-based; details: 72 h
Description: (§5) MCF-7 and SKBr3 cells were maintained in a 1:1 mixture of Advanced DMEM/F12 (Gibco) supplemented with nonessential amino acids, L-glutamine (2 mM), streptomycin ([…]), penicillin (100 units/mL), and 10% FBS. Cells were grown to confluence in a humidified atmosphere (37° C., 5% CO2), seeded (2000/well, 100 μL) in 96-well plates, and allowed to attach overnight. Compound or GDA at varying concentrations in DMSO (1% DMSO final concentration) was added, and cells were returned to the incubator for 72 h. At 72 h, the number of viable cells was determined using an MTS/PMS cell proliferation kit (Promega) per the manufacturer's instructions. Cells incubated in 1% DMSO were used as 100% proliferation, and values were adjusted accordingly. IC50 values were calculated from separate experiments performed in triplicate using GraphPad Prism.

SKBr3 cells = assay: Anti-proliferative assay (MTS/PMS), SKBr3; assay type: cell-based; details: 72 h
Description: as §5

[4] = tested on: alkaline phosphatase in Ishikawa cells; assay: Inhibition of E2-stimulated alkaline phosphatase in Ishikawa cells; assay type: cell-based, human; details: Ki determined in the presence of I nm E2
Description: as §3, §4

T2 sequence (Q92731 264-498 limits assumed): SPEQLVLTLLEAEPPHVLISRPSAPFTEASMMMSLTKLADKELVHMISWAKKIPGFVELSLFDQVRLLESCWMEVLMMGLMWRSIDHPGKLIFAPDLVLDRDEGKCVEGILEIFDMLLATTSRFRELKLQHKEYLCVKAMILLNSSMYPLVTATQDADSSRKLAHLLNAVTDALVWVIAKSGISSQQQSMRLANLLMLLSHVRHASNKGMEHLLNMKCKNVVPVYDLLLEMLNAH

C[C@]12C[C@H](c3ccc(OCCN=[N+]=[N-])cc3)[C@@H]3c4ccc(O)cc4CC[C@H]3[C@@H]1CC[C@@H]2O [Compound 2-13, (8S,9R,11S,13S,14S,17S)-11-(4-(2-azidoethoxy)phenyl)-7,8,9,11,12,13,14,15,16,17-decahydro-13-methyl-6H-cyclopenta[a]phenanthrene-3,17-diol]
RBA ERα [1]: 39.3±9.0 and 39.3 | RBA ERα ([1]; listed as drawing 40): 39.3 ± 9.0 | ER-subtype selectivity (Human LBD-ERβ; ERα vs ERβ): does not differentiate between ERα and ERβ | RBA ERβ (Human LBD-ERβ): 33.7±1.77 | RBA ERβ (Human LBD-ERβ; listed as drawing 40): 33.7 ± 1.77 | β/α (Human LBD-ERβ; ratio of RBA ERβ to RBA ERα): 0.86

C[C@]12C[C@H](c3ccc(OCCOCCOCCN=[N+]=[N-])cc3)[C@@H]3c4ccc(O)cc4CC[C@H]3[C@@H]1CC[C@@H]2O [EH-N7-092, 11β-[4-(ω-azido-triethyleneglycoloxy)]-phenyl-estradiol]
Ishikawa - RSA [2]: 0%

CO[C@@]12[C@H](COC(N)=O)C3=C(C(=O)C(C)=C(N)C3=O)N1C[C@@H]1N[C@@H]12 [mitomycin C]
anti-proliferative response [3]: more potent in the MCF-7 vs. the MDA-231 cell lines

Estradiol [Compound E2, reference compound]
EC50 ([2]; Ishikawa cells, read-out: EC50 of E2, alkaline phosphatase induction): ~0.2 nM

Geldanamycin aminopentanamidocarbonylphenyl-methyl difluorocyclooctenyltriazolo-ethoxy Anti-Estrogen [Compound 3-17]
EC50 (MCF-7 cells): 17000 nM

Geldanamycin-aminoheptaethylene glycolyl-triazolo-methylaminoethoxy Anti-Estrogen [Compound 3-15]
EC50 (MCF-7 cells): 102 ± 5 nM

Geldanamycin-aminomethyl-triazolo-ethoxy Anti-Estrogen [Compound 3-13]
EC50 (MCF-7 cells): 1200 ± 90 nM | EC50 (SKBr3 cells): 710 ± 160 nM

N-propargyl-N′-methyl-mitomycin C [EH-N9-006]
Ishikawa - RSA [2]: 0% | Ki [4]: 40 ± 4 nM
